Assay results as given in publication PMC8374649, “IBI362 (LY3305677), a weekly-dose GLP-1 and glucagon receptor dual agonist, in Chinese adults with overweight or obesity: A randomised, placebo-controlled, multiple ascending dose phase 1b study” (EClinicalMedicine, 2021).
Read-outs that look alike come from different tables or passages of the source.

Assays:
[1] = system: Chinese adults with overweight or obesity; experiment: Efficacy and pharmacodynamic endpoints, change from baseline to week 12; format: in vivo, human; settings: for Body weight Percent CFB / BMI CFB / Body weight CFB / Diastolic blood pressure CFB / Fasting insulin CFB / Fasting plasma glucose CFB / LDL cholesterol CFB / Systolic blood pressure CFB / Total cholesterol CFB / Triglycerides CFB / Waist circumference CFB / Serum uric acid CFB: MMRM; for HbA1c CFB: ANCOVA, LOCF; for Serum uric acid CFB: post-hoc, baseline to week 12, LS mean (95% CI)
Text: The secondary pharmacodynamic endpoints included changes from baseline (pre-dose on day 0) to week 12 in fasting plasma glucose and fasting insulin levels. The secondary efficacy endpoints included changes from baseline to week 12 in body weight, waist circumference, waist-to-hip ratio, BMI, blood pressure, heart rate, lipids and HbA1c levels. Post-hoc comparison of changes from baseline to week 12 in serum uric acid levels was done between participants receiving IBI362 in each cohort and those receiving placebo. We used mixed effect model for repeated measures (MMRM) for post-baseline repeated measures to analyse continuous efficacy and pharmacodynamic endpoints. The MMRM included the corresponding baseline value, treatment, visit and treatment-by-visit as fixed effects and participant as a random effect. Mean change from baseline or mean percent change from baseline were analysed using a restricted maximum likelihood (REML)-based repeated measures approach in combination with the Newton Raphson Algorithm. The fix effect of visit was fitted as a repeated effect and an unstructured covariance matrix was used. In case of non-converge, matrix like Variance Components and Compound Symmetry will be tested in a subsequent order until model-convergence is achieved. The between-subject degree of freedom was used in estimating fixed effects. No missing data imputation was conducted. Least squares mean estimates of treatment effect at week 12 as well as treatment difference versus placebo alongside with two-sided 95% confidence intervals were provided for key efficacy and pharmacodynamic endpoints. Significance test for body weight was based on least squares means using a two-sided α of 0.05. HbA1c was measured only at baseline and week 12. Least squares mean estimates for HbA1c were computed from an Analysis of Covariance (ANCOVA) model with baseline HbA1c value and treatment as covariates. Last observation carried forward (LOCF) was used for imputing missing post-baseline measure. Least squares mean estimates of treatment effect at week 12 alongside with two-sided 95% confidence intervals were provided. Post-hoc analysis of serum uric acid was performed using MMRM model described above.

mice = settings: cited from earlier work
Text: (§1) IBI362 is a long-acting synthetic peptide analogue of mammalian OXM, with a fatty-acyl moiety to extend the half-life. […] Furthermore, a first-in-human single ascending dose ...

mouse glucagon receptors = settings: in vitro; cited from earlier work
Text: as §1

healthy subjects = settings: single ascending dose; cited from earlier work
Text: as §1

human GLP-1 receptors = settings: in vitro; cited from earlier work
Text: as §1

mouse GLP-1 receptors = settings: in vitro; cited from earlier work
Text: as §1

human glucagon receptors = settings: in vitro; cited from earlier work
Text: as §1

Glp1r KO mice = settings: cited from earlier work
Text: as §1

Gcgr knockout (KO) mice = settings: cited from earlier work
Text: as §1

[2] = Pharmacokinetics, non-compartmental, plasma concentration after subcutaneous dosing; format: in vivo; settings: human; for Cmax / AUC(0-t): n = 8, geometric mean (CV%); for AUC(0-t): read-out: AUC0–168h
Method: (§2) Pharmacokinetic parameters were assessed on pre-defined visits in all participants who received IBI362. […] Standard non-compartmental pharmacokinetics methods were used to analyze IBI362 plasma concentration data using Pkanalix 2020R1 (Lixoft, Antony, France). The values for Cmax and Tmax were taken directly from the observed plasma concentration data. The terminal-phase disposition rate constant (λz) was estimated using a log-linear regression of the concentration data in the terminal disposition phase, and T1/2 was estimated as ln(2)/λz. Immunogenicity was assessed by measures of anti-drug antibody-positive responses.
Safety analyses were done in the safety population (defined as all participants who received at least one dose of the study treatment). Pharmacokinetic analyses were done in the pharmacokinetic population (defined as all participants who received at least one dose of IBI362 and had at least one valid plasma concentration assessment). Pharmacodynamic analyses were done in the pharmacodynamic population (defined as all participants who received at least one dose of the study treatment and had baseline and at least one valid assessment). Efficacy analyses were done in the efficacy population (defined as all participants who received at least one dose of the study treatment and had at least one post-baseline assessment).

[3] = Immunogenicity, anti-drug antibody-positive responses; format: in vivo, human
Method: as §2

[4] = 1.0–2.0–3.0 mg sc once weekly, baseline to week 12, n = 8, LS mean (95% CI)
[5] = 1.5–3.0–4.5 mg sc once weekly, baseline to week 12, n = 8, LS mean (95% CI)
[6] = 2.0–4.0–6.0 mg sc once weekly, baseline to week 12, n = 7, LS mean (95% CI)
[7] = 1 mg, after first sc dose, 1.0–2.0–3.0 mg regimen
[8] = 1.5 mg, after first sc dose, 1.5–3.0–4.5 mg regimen
[9] = 2 mg, after first sc dose, 2.0–4.0–6.0 mg regimen

In the case of `CC(C)C[C@H](NC(=O)[C@H](CC(C)C)NC(=O)[C@H](Cc1c[nH]c2ccccc12)NC(=O)[C@H](CCC(=O)O)NC(=O)[C@@H](NC(=O)[C@H](Cc1ccccc1)NC(=O)[C@H](CCC(=O)O)NC(=O)[C@H](CCCCNC(=O)COCCOCCNC(=O)COCCOCCNC(=O)CC[C@H](NC(=O)CCCCCCCCCCCCCCCCCCC(=O)O)C(=O)O)NC(=O)[C@H](C)NC(=O)[C@H](CCCCN)NC(=O)[C@H](CCCCN)NC(=O)[C@H](CCC(=O)O)NC(=O)[C@H](CC(=O)O)NC(=O)[C@H](CC(C)C)NC(=O)[C@H](Cc1ccc(O)cc1)NC(=O)[C@H](CCCCN)NC(=O)[C@H](CO)NC(=O)[C@H](Cc1ccc(O)cc1)NC(=O)[C@H](CC(=O)O)NC(=O)[C@H](CO)NC(=O)[C@@H](NC(=O)[C@H](Cc1ccccc1)NC(=O)[C@@H](NC(=O)CNC(=O)[C@H](CCC(N)=O)NC(=O)C(C)(C)NC(=O)[C@@H](N)Cc1c[nH]cn1)[C@@H](C)O)[C@@H](C)O)C(C)C)C(=O)N[C@@H](CCC(=O)O)C(=O)NCC(=O)NCC(=O)N1CCC[C@H]1C(=O)N[C@@H](CO)C(=O)N[C@@H](CO)C(=O)NCC(N)=O` [IBI362], the “Body weight Percent CFB” value ([1]; 1.0–2.0–3.0 mg sc once weekly (3.0 mg cohort), baseline to week 12, n = 8, LS mean (95% CI)) is reported as −4.81%, the “HbA1c CFB” value [1, 4] is reported as −0.38% and the “BMI CFB” value [1, 4] is reported as −1.44 kg/m². The “Body weight CFB” value [1, 4] was -3.80 kg, the “Diastolic blood pressure CFB” value [1, 4] was −8.48 mm Hg and the “Fasting insulin CFB” value [1, 4] was −3.58 µU/mL. For the same compound, the “Fasting plasma glucose CFB” value [1, 4] was -0.30 mmol/L, the “LDL cholesterol CFB” value [1, 4] was -0.11 mmol/L and the “Systolic blood pressure CFB” value [1, 4] was −8.26 mm Hg. The “Total cholesterol CFB” value [1, 4] was -0.74 mmol/L, the “Triglycerides CFB” value [1, 4] was -0.44 mmol/L and the “Waist circumference CFB” value [1, 4] was −3.25 cm. The “Body weight Percent CFB” value ([1]; 1.5–3.0–4.5 mg sc once weekly (4.5 mg cohort), baseline to week 12, n = 8, LS mean (95% CI)) was −6.40%, the “HbA1c CFB” value [1, 5] was −0.24% and the “BMI CFB” value [1, 5] was −2.00 kg/m². For the same compound, the “Body weight CFB” value [1, 5] was -5.77 kg, the “Diastolic blood pressure CFB” value [1, 5] was −5.76 mm Hg and the “Fasting insulin CFB” value [1, 5] was −6.14 µU/mL. The “Fasting plasma glucose CFB” value [1, 5] was -0.11 mmol/L, the “LDL cholesterol CFB” value [1, 5] was -0.25 mmol/L and the “Systolic blood pressure CFB” value [1, 5] was −5.80 mm Hg. The “Total cholesterol CFB” value [1, 5] was -0.68 mmol/L, the “Triglycerides CFB” value [1, 5] was -0.55 mmol/L and the “Waist circumference CFB” value [1, 5] was −4.57 cm. The “Body weight Percent CFB” value ([1]; 2.0–4.0–6.0 mg sc once weekly (6.0 mg cohort), baseline to week 12, n = 7, LS mean (95% CI)) was −6.05%, the “HbA1c CFB” value [1, 6] was −0.23% and the “BMI CFB” value [1, 6] was −1.88 kg/m². The “Body weight CFB” value [1, 6] was -5.12 kg, the “Diastolic blood pressure CFB” value [1, 6] was −2.73 mm Hg and the “Fasting insulin CFB” value [1, 6] was −0.42 µU/mL. The “Fasting plasma glucose CFB” value [1, 6] was -0.13 mmol/L, the “LDL cholesterol CFB” value [1, 6] was -0.34 mmol/L and the “Systolic blood pressure CFB” value [1, 6] was −5.59 mm Hg. For the same compound, the “Total cholesterol CFB” value [1, 6] was -0.81 mmol/L, the “Triglycerides CFB” value [1, 6] was -0.74 mmol/L and the “Waist circumference CFB” value [1, 6] was −5.00 cm. For the same compound, the “Serum ALT and AST levels” value ([1]; all three dose cohorts (Fig. S6)) was “decreased from baseline”, the “Serum uric acid CFB” value ([1]; 3.0 mg cohort (1.0-2.0-3.0 mg)) was -43.67 µmol/L and the “Serum uric acid CFB” value ([1]; 4.5 mg cohort (1.5-3.0-4.5 mg)) was -83.47 µmol/L. The “Serum uric acid CFB” value ([1]; 6.0 mg cohort (2.0-4.0-6.0 mg)) was -87.48 µmol/L, the “Participants with coincident decrease in body weight, LDL cholesterol, triglycerides, blood pressure and serum uric acid” value ([1]; week 12, all IBI362 cohorts, 10 participants, data not shown) was 41.7% and the “Participants achieving ≥5% weight loss from baseline” value ([1]; week 12, all IBI362 cohorts, thirteen participants) was 54.2%. For the same compound, the “Energy expenditure as compared with vehicle” value (mice) was “increased energy expenditure”, the Glucose control (mice) was “improved glucose control” and the “Binding to mouse glucagon receptors” value (mouse glucagon receptors) was “potently bound”. The “Safety, glycaemic improvement and weight loss” value (healthy subjects) was “demonstrated the safety, glycaemic improvement and weight loss”, the “Binding to human GLP-1 receptors” value (human GLP-1 receptors) was “potently bound” and the “Binding to mouse GLP-1 receptors” value (mouse GLP-1 receptors) was “potently bound”. The “Binding to human glucagon receptors” value (human glucagon receptors) was “potently bound”, the Body weight (Glp1r KO mice) was “decreased body weight” and the Body weight (Gcgr knockout (KO) mice) was “decreased body weight”. It also gave a Cmax [2, 7] of 82.4 ng/mL, an AUC(0-t) [2, 7] of 12500 ng·h/mL and a Tmax ([2]; 1 mg, after first sc dose, 1.0–2.0–3.0 mg regimen, n = 8, median (range), read-out: Tmax) of 71.9 h. The Cmax [2, 8] was 99.6 ng/mL, the AUC(0-t) [2, 8] was 15600 ng·h/mL and the Tmax ([2]; 1.5 mg, after first sc dose, 1.5–3.0–4.5 mg regimen, n = 8, median (range), read-out: Tmax) was 84.5 h. The Cmax [2, 9] was 134 ng/mL, the AUC(0-t) [2, 9] was 19200 ng·h/mL and the Tmax ([2]; 2 mg, after first sc dose, 2.0–4.0–6.0 mg regimen, n = 8, median (range), read-out: Tmax) was 71.9 h. The Tmax ([2]; first sc doses, all cohorts, read-out: median Tmax) was 72 h, the “Participants who developed anti-IBI362 antibody” value ([3]; 3.0 mg cohort) was “One” and the “Participants who developed anti-IBI362 antibody” value ([3]; 4.5 mg cohort) was “one”.
